# Test results as given in PubChem BioAssay AID2060497 (Molecular Pharmacology Branch, DTP, NCI, 2025).
# “And” between values parts separate entries of the source, which are not always exact repeats. Equal values may be shown once.
# System: 317291-083-R-J1-PDC complex spheroids, viability
# Assay: Anticancer human tumor 317291-083-R-J1-PDC patient-derived soft tissue sarcoma cell line growth inhibition [GQUAD]
# Settings: for viability, T/C: stronger effect = lower value
# Source text: DNA G-quadruplex Stabilizer Agents in Combinations in Complex Spheroids
# A high-throughput screen of multi-cell type tumor spheroids was designed to identify active combinations of DNA G-quadruplex stabilizer agents and targeted small molecules. Complex spheroids include a stromal component modeled by human endothelial cells (HUVEC) and fibroblasts modeled by human mesenchymal stem cells (MSCs). The concentration ranges selected for each drug and investigational agent were based upon clinically achievable concentrations if the clinical Cmax of the agent was known.
# Compounds. The drugs and investigational agents: pidnarulex (CX-5461; NSC782164), APTO-253 (NSC789042), BRACO-19 (NSC847499), peposertib (NSC802822), ceralasertib (NSC780249), elimusertib (NSC800525), camonsertib (NSC841442), AZD-1390 (NSC803789), olaparib (NSC753686), talazoparib (NSC767125), ART-558 (NSC835418), sotorasib (NSC818433), MRTX-1133 (NSC836407), SN-38 (NSC673596), topotecan (NSC609699), etoposide (NSC141540), doxorubicin (NSC123127), gemcitabine (NSC613327), 5-fluorouracil (NSC19893), paclitaxel (NSC125973), vemurafenib (NSC761431), panobinostat (NSC761190), R-306465 (JNJ-16241199; NSC773264), adavosertib (NSC754352), TP-3654 (NSC805149), carboplatin (NSC241240), KSQ-4279 (NSC840948), and staurosporine (NSC755774) were obtained from the National Cancer Institute (NCI) Developmental Therapeutics Program Chemical Repository (34). The FDA-approved anticancer drug set is available from the NCI Developmental Therapeutics Program. […] The stock solutions were prepared in dimethyl sulfoxide (DMSO, Sigma-Aldrich, St. Louis, MO, cat. D2650) at 800-fold the tested concentration and stored at -70 degrees C prior to their use. All drugs and investigational agents were tested over a range starting from a high concentration at or near the clinical Cmax and decreasing in half-log increments. If the clinical Cmax for an agent had not been determined, the highest concentration tested was 10 microM.
# 2.3 Cell Culture. All cells were maintained in an incubator at 37 degrees C and 5% CO2 with 95% humidity. The PDC lines were cultured according to standard operating procedures established by the NCI PDMR. All PDCs were thawed and cultured in Matrigel-coated flasks prepared with a working solution of 1X Ham's F-12 nutrient mix, without supplementation (Invitrogen, cat. 11765054), 100 U/mL penicillin-streptomycin (Invitrogen, cat. 15140122), and 2.5% Matrigel (Corning Inc., cat. 354248) for the first three passages. The 857933-349-R-J2-PDC line was cultured in 6C/Colon 1B media, which includes advanced DMEM/F-12 (Thermo Fisher Scientific, cat. 12634028), 10 mM HEPES (Thermo Fisher Scientific, cat. 15630080), 1X GlutaMAX supplement (Thermo Fisher Scientific, cat. 35050061), 0.1 mg/mL primocin (InvivoGen, cat. ant-pm-2), 10% defined fetal bovine serum, heat inactivated (HyClone Laboratories Inc., cat. SH30070.03HI), 50% L-WRN conditioned media (ATCC, cat. CRL-3276), 1.25 mM N-Acetyl-L-cysteine (Sigma-Aldrich, cat. A9165), 10 mM nicotinamide (Sigma-Aldrich, cat. N0636), 1X B-27 supplement (Thermo Fisher Scientific, cat. 17504044), 1X N-2 supplement (Thermo Fisher Scientific, cat. 17502048), 10 microM Y-27632 dihydrochloride (Tocris Bioscience, cat. 1254), and 50 ng/mL human EGF recombinant protein (Thermo Fisher Scientific, cat. PHG0311). The 485176-168-R4-J1-PDC line was cultured in Panc media, which includes all 6C/Colon 1B media components plus 100 ng/mL human FGF-10 (Thermo Fisher Scientific, cat. 100-26), 500 nM SB-431542 (Selleckchem, cat. S1067), and gastrin (Tocris, cat. 3006).
# […]
# 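Note: spheroids exposed to compounds for one week before readout.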
# 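Throughout, for viability, T/C: percent viability relative to DMSO vehicle wells taken as 100%.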
smiles,measurement,setting,value
Cc1[nH]c2ccc(F)cc2c1-c1nc2c3cccnc3c3ncccc3c2[nH]1,IC50,"compound alone, run of 02/20/2024",> 10000 nM
O=C(NO)c1cnc(N2CCN(S(=O)(=O)c3ccc4ccccc4c3)CC2)nc1,"viability, T/C",compound 0.0316 µM,109% and 96.9% and 93.2%
same,"viability, T/C",compound 0.1 µM,62.2% and 72.5% and 96.7%
same,"viability, T/C",compound 0.316 µM,8.74% and 8.1% and 24.6%
same,"viability, T/C",compound 1 µM,0.24% and 0.48% and 0.9%
same,"viability, T/C",compound 3.16 µM,0.11% and 0.05% and 0.04%
same,"viability, T/C",compound 10 µM,0.29% and 1.01% and 0.08%
same,IC50,curve of compound,130 nM and 149 nM and 209 nM
CC(C)(O)C1CCC(Nc2ccc3ncc(-c4cccc(C(F)(F)F)c4)n3n2)CC1 (centres undefined),"viability, T/C",compound 0.0316 µM,116% and 108% and 110%
same,"viability, T/C",compound 0.1 µM,95.4% and 96.7% and 97.2%
same,"viability, T/C",compound 0.316 µM,83% and 89.8% and 76.7%
same,"viability, T/C",compound 1 µM,30% and 33.8% and 28.6%
same,"viability, T/C",compound 3.16 µM,0.43% and 0.52% and 1.03%
same,"viability, T/C",compound 10 µM,0.85% and 0.69% and 1%
same,IC50,curve of compound,633 nM and 711 nM and 588 nM
Cc1[nH]c2ccccc2c1CCNCc1ccc(/C=C/C(=O)NO)cc1 + Cc1[nH]c2ccc(F)cc2c1-c1nc2c3cccnc3c3ncccc3c2[nH]1,IC50,"curve of first compound, second compound 0.0316 µM",43.4 nM
same,IC50,"curve of first compound, second compound 0.1 µM",48.1 nM
same,IC50,"curve of first compound, second compound 0.316 µM",12.1 nM
same,IC50,"curve of first compound, second compound 1 µM",4.07 nM
same,IC50,"curve of first compound, second compound 3.16 µM",1.08 nM
same,IC50,"curve of first compound, second compound 10 µM",< 0.999 nM
same,"viability, T/C","second compound 0.0316 µM, first compound 0.000999 µM",114%
same,"viability, T/C","second compound 0.0316 µM, first compound 0.00316 µM",96.7%
same,"viability, T/C","second compound 0.0316 µM, first compound 0.00999 µM",96.9%
same,"viability, T/C","second compound 0.0316 µM, first compound 0.0316 µM",67%
same,"viability, T/C","second compound 0.0316 µM, first compound 0.0999 µM",6.7%
same,"viability, T/C","second compound 0.0316 µM, first compound 0.316 µM",0.62%
same,"viability, T/C","second compound 0.1 µM, first compound 0.000999 µM",93.4%
same,"viability, T/C","second compound 0.1 µM, first compound 0.00316 µM",93.3%
same,"viability, T/C","second compound 0.1 µM, first compound 0.00999 µM",85.2%
same,"viability, T/C","second compound 0.1 µM, first compound 0.0316 µM",74%
same,"viability, T/C","second compound 0.1 µM, first compound 0.0999 µM",8.53%
same,"viability, T/C","second compound 0.1 µM, first compound 0.316 µM",0.12%
same,"viability, T/C","second compound 0.316 µM, first compound 0.000999 µM",73.3%
same,"viability, T/C","second compound 0.316 µM, first compound 0.00316 µM",68.5%
same,"viability, T/C","second compound 0.316 µM, first compound 0.00999 µM",53.9%
same,"viability, T/C","second compound 0.316 µM, first compound 0.0316 µM",28.9%
same,"viability, T/C","second compound 0.316 µM, first compound 0.0999 µM",6.05%
same,"viability, T/C","second compound 0.316 µM, first compound 0.316 µM",0.16%
same,"viability, T/C","second compound 1 µM, first compound 0.000999 µM",59.9%
same,"viability, T/C","second compound 1 µM, first compound 0.00316 µM",51%
same,"viability, T/C","second compound 1 µM, first compound 0.00999 µM",39.7%
same,"viability, T/C","second compound 1 µM, first compound 0.0316 µM",15.5%
same,"viability, T/C","second compound 1 µM, first compound 0.0999 µM",3.36%
same,"viability, T/C","second compound 1 µM, first compound 0.316 µM",0.14%
same,"viability, T/C","second compound 3.16 µM, first compound 0.000999 µM",51.5%
same,"viability, T/C","second compound 3.16 µM, first compound 0.00316 µM",39%
same,"viability, T/C","second compound 3.16 µM, first compound 0.00999 µM",19.9%
same,"viability, T/C","second compound 3.16 µM, first compound 0.0316 µM",27.9%
same,"viability, T/C","second compound 3.16 µM, first compound 0.0999 µM",1.59%
same,"viability, T/C","second compound 3.16 µM, first compound 0.316 µM",0.17%
same,"viability, T/C","second compound 10 µM, first compound 0.000999 µM",48.7%
same,"viability, T/C","second compound 10 µM, first compound 0.00316 µM",49%
same,"viability, T/C","second compound 10 µM, first compound 0.00999 µM",51.4%
same,"viability, T/C","second compound 10 µM, first compound 0.0316 µM",13.5%
same,"viability, T/C","second compound 10 µM, first compound 0.0999 µM",3.62%
same,"viability, T/C","second compound 10 µM, first compound 0.316 µM",0.24%
C=CCn1c(=O)c2cnc(Nc3ccc(N4CCN(C)CC4)cc3)nc2n1-c1cccc(C(C)(C)O)n1,"viability, T/C",compound 0.0316 µM,76.4% and 96.2% and 111%
same,"viability, T/C",compound 0.1 µM,59.4% and 51.4% and 83.7%
same,"viability, T/C",compound 0.316 µM,26.6% (2×) and 41.3%
same,"viability, T/C",compound 1 µM,17.6% and 13.5% and 23.8%
same,"viability, T/C",compound 3.16 µM,8.54% and 7.89% and 17.9%
same,"viability, T/C",compound 10 µM,9.53% and 9.94% and 16.1%
same,IC50,curve of compound,138 nM and 108 nM and 253 nM
